Test results from patent publication US7851589B2, “Polypeptide derived from the ryanodine receptor that inhibits calcium leakage” (Otsuka Pharmaceutical Co., Ltd., priority 2004, dated 2010).

Key:
ryanodine receptor = assay: FK506-induced Ca2+ leakage in sarcoplasmic reticulum derived from canine myocardium (fluo 3 indicator); format: biochemical; conditions: for Ca2+ leakage inhibitory effect: 30 μM FK506 + 1 μM thapsigargin, value 20 seconds after addition, canine myocardial sarcoplasmic reticulum; for Ca2+ leakage inhibitory effect / Ca2+ leakage inhibitory activity compared with R2P: polypeptide 0.1, 0.3 or 1.0 μM
Method: Ca^2+ leakage inhibitory activity was measured through the method of Yano, M., et al. [Yano, et al., Circulation, 102, 2131-2136 (2000)].
Firstly, sarcoplasmic reticulum was prepared from canine myocardium through the method of Kranias, et al. [Kranias E., et al., Biochim. Biophys. Acta., 709, 28-37 (1982)].
Subsequently, the sarcoplasmic reticulum (0.2 mg/mL) was incubated in 0.5 mL of 20 mM MOPS buffer (pH 6.8) containing […] potassium gluconate, 0.2 mM EGTA-calcium buffer (free calcium: Ca^2+=0.3 μM), and 10 mM NaN3.
After the fluorescence value was maintained constant, 0.5 mM ATP (product of Sigma) and 0.5 mM magnesium chloride were added to the resultant mixture, to thereby initiate Ca^2+ uptake. The time course of Ca^2+ uptake was measured. Ca^2+ uptake was measured by means of fluo 3 (product of Molecular Probes) serving as a Ca^2+ indicator, and the fluorescence intensity at an excitation wavelength of 480 nm and an emission wavelength of 530 nm was measured by means of a fluorometer.
After Ca^2+ uptake reached a plateau, 1 μM thapsigargin (product of Wako Pure Chemical Industries, Ltd.) was added to thereby inhibit sarco(endo)plasmic reticulum Ca-ATPase (SERCA) activity for elimination of the influence of SERCA. The difference between the fluorescence value before addition of ATP and the fluorescence value at the time of completion of ATP-induced active Ca^2+ uptake (i.e., the fluorescence value at the time when Ca^2+ uptake reached a plateau) was taken as 100%.
Ca^2+ leakage induced by simultaneous addition of thapsigargin and 30 μM FK506 (product of Fujisawa Pharmaceutical Co., Ltd,), which was regarded as a control of Ca^2+ leakage induction, was measured by means of a Ca^2+ indicator.
A polypeptide obtained in (a) above (concentration: 0.1 μM, 0.3 μM, or 1.0 μM) and FK506 (30 μM/L) were added simultaneously with administration of thapsigargin, and the effect of inhibiting the thus-induced Ca^2+ leakage via ryanodine receptor was measured by means of a Ca^2+ indicator in a manner similar to that described above.
In each of these figures, the vertical axis corresponds to the value as measured 20 seconds after addition of thapsigargin, FK506, and a polypeptide. The value is the average of data of measurement performed twice or three times.

[1] = test system: neuron death during cerebral ischemia; conditions: Neurosci. Lett., 158: 105-108 (1993); cited from earlier work
RyR2 = RyR2 (Canis lupus familiaris, UniProt A0A8I3MT21); conditions: cited from earlier work
RyR2, sequence (A0A8I3MT21 1-4967): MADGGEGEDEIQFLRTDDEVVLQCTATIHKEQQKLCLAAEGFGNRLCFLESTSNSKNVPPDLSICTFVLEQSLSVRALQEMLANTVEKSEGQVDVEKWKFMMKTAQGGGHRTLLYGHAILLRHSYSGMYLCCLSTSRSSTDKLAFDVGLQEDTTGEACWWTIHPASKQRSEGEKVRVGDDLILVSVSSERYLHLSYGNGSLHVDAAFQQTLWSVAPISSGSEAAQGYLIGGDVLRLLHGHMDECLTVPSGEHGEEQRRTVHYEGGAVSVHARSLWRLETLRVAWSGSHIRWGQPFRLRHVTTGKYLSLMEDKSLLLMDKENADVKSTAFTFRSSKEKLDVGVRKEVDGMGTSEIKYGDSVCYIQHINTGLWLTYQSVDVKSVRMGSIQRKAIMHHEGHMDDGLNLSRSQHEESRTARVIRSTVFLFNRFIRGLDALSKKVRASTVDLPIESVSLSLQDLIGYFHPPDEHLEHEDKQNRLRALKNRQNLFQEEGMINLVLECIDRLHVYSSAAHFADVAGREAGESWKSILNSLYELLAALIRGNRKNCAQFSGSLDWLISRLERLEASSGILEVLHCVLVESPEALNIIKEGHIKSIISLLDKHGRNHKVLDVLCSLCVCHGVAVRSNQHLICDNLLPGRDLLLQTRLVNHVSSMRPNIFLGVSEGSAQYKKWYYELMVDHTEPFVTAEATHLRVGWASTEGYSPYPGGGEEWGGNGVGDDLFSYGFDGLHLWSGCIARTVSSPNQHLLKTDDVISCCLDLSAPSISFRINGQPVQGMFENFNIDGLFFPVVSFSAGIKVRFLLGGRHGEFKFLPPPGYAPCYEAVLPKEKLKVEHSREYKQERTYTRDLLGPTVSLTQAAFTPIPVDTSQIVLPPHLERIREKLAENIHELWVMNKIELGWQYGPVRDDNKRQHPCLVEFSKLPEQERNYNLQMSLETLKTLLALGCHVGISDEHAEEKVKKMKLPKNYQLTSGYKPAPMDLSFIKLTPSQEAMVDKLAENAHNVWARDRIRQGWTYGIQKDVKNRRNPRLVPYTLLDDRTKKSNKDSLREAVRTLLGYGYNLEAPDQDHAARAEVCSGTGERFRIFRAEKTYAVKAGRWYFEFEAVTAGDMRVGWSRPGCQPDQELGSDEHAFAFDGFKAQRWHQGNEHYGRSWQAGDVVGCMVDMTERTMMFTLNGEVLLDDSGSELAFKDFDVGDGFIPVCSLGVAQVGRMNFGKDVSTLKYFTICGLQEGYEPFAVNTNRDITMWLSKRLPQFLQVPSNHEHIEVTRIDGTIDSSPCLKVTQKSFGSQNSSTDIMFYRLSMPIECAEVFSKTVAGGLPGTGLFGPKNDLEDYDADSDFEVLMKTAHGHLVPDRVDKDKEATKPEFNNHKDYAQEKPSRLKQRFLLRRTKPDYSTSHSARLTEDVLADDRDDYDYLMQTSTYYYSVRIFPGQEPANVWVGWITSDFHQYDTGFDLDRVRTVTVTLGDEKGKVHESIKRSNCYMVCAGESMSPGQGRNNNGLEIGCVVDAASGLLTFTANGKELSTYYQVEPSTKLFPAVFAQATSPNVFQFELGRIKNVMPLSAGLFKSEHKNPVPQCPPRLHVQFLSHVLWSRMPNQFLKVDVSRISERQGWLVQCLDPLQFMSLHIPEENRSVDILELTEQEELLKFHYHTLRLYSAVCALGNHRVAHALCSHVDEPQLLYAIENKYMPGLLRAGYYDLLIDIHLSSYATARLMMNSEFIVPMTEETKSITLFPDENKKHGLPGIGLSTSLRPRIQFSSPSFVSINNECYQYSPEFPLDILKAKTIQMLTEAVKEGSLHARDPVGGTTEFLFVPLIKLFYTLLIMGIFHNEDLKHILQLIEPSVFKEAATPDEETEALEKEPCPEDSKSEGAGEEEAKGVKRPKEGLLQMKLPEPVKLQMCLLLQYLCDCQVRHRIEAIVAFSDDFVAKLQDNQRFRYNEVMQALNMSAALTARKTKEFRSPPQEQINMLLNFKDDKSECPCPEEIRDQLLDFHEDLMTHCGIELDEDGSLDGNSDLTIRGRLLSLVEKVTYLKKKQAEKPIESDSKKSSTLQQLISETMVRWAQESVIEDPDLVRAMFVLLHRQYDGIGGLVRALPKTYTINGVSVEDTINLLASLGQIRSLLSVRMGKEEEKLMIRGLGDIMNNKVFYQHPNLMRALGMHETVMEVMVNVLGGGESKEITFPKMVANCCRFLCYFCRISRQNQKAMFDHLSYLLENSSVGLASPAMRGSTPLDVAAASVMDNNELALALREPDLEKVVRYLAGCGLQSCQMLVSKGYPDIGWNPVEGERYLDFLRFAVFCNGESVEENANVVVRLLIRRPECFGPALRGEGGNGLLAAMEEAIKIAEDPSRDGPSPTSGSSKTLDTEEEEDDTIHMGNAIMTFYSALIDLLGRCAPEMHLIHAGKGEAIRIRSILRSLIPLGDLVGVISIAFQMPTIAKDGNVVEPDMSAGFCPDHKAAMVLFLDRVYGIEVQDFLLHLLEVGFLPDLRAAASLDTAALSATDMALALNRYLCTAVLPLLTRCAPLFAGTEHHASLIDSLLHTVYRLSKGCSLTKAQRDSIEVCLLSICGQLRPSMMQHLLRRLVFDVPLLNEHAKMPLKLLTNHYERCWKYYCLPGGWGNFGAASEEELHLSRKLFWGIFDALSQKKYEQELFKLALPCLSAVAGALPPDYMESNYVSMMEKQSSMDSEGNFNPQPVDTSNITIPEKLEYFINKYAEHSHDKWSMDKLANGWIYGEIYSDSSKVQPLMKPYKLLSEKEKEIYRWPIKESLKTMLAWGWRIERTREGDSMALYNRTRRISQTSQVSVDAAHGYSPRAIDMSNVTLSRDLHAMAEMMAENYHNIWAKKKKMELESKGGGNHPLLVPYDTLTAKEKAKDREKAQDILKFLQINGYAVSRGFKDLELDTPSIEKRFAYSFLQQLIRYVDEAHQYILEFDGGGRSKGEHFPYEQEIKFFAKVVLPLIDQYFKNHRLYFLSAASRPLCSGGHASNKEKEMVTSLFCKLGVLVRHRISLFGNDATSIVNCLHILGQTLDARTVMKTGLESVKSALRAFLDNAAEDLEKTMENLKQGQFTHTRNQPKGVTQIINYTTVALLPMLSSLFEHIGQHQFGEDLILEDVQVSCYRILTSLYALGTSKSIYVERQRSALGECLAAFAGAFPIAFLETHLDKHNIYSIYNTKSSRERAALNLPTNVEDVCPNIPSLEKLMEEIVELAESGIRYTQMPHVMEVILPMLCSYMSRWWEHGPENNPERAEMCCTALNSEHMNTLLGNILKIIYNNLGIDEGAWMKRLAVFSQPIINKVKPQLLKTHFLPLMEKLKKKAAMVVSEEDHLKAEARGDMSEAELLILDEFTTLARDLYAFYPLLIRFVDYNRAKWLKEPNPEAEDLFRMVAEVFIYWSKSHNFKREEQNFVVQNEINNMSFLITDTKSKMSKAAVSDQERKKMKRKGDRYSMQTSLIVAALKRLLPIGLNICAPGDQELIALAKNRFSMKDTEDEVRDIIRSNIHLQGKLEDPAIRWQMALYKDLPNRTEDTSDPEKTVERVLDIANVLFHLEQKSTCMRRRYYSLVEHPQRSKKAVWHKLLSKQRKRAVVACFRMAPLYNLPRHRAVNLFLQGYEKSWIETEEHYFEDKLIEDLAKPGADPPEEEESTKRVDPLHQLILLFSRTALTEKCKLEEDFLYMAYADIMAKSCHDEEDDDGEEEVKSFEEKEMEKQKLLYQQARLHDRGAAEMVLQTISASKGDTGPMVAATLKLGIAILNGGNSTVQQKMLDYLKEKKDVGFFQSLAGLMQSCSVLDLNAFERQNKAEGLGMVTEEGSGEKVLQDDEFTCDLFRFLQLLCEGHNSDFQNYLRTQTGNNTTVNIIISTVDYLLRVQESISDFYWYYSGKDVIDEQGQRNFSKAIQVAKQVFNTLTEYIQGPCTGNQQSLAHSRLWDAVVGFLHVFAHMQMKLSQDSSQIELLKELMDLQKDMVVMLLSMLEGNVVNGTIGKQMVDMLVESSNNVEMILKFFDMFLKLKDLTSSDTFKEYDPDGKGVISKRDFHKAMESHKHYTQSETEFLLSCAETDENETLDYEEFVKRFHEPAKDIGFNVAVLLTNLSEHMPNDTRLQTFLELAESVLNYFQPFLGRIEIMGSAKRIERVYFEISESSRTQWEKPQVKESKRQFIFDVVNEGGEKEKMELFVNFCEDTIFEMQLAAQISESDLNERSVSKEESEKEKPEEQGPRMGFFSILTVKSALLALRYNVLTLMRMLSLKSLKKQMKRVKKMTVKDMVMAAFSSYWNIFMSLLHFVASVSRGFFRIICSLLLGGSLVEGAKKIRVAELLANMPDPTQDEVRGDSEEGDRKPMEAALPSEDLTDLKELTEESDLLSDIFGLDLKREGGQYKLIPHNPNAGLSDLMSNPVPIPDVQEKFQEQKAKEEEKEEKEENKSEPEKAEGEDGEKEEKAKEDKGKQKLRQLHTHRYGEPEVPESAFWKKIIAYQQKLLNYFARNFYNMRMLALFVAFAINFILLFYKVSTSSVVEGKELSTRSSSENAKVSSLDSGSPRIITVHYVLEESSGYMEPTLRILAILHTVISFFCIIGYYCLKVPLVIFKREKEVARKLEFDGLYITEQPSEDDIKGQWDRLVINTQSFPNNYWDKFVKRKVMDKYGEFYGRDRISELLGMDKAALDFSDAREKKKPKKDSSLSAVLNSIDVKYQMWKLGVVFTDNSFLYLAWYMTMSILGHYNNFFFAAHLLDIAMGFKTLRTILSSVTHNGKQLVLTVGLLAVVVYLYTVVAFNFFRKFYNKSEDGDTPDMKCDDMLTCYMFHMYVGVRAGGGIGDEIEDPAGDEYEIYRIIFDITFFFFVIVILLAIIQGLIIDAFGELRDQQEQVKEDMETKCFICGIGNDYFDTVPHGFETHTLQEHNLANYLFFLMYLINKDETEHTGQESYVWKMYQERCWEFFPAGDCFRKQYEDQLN

normal canine model = conditions: cited from earlier work
[2] = test system: ischemic reperfusion injury; conditions: Hypertens. Res., 25: 303-9 (2002); cited from earlier work
[3] = test system: tachycardia-induced canine heart failure model; conditions: cited from earlier work

Compound	Ca2+ leakage inhibitory effect (ryanodine receptor)	Ca2+ leakage inhibitory activity compared with R2P (ryanodine receptor; FK506-induced leakage)	further results
SEQ ID NO: 14: hRyR2 amino acid Nos. 2086-2113 (VLLHRQYDGIGGLVRALPKTYTINGVSV)	having no Ca^2+ leakage inhibitory effect	–	–
RP1-25: hRyR2 amino acid Nos. 2114-2138; deletion of 11 amino acids at the C-terminal of R2P (EDTINLLASLGQIRSLLSVRMGKEE)	exhibit Ca^2+ leakage inhibitory effect in a concentration-dependent manner	lower than that of R2P	–
O=C1CN(/N=C/c2ccc(-c3ccc([N+](=O)[O-])cc3)o2)C(O)=N1 [dantrolene]	–	–	Inhibition of neuron death during cerebral ischemia [1]: inhibit neuron death during cerebral ischemia
R2JF: hRyR2 amino acid Nos. 2086-2133; SEQ ID NO: 14 peptide introduced to the N-terminal of RP1-20 (VLLHRQYDGIGGLVRALPKTYTINGVSVEDTINLLASLGQIRSLLSVR)	exhibit no Ca^2+ leakage inhibitory effect	–	–
RP17-36: hRyR2 amino acid Nos. 2130-2149; deletion of 16 amino acids at the N-terminal of R2P (LSVRMGKEEEKLMIRGLGDI)	exhibit Ca^2+ leakage inhibitory effect in a concentration-dependent manner	lower than that of R2P	–
RP1-20: hRyR2 amino acid Nos. 2114-2133; deletion of 16 amino acids at the C-terminal of R2P (EDTINLLASLGQIRSLLSVR)	exhibit Ca^2+ leakage inhibitory effect in a concentration-dependent manner	lower than that of R2P	–
RP13-32: hRyR2 amino acid Nos. 2126-2145; deletion of 12 N-terminal and four C-terminal amino acids of R2P (IRSLLSVRMGKEEEKLMIRG)	exhibit Ca^2+ leakage inhibitory effect in a concentration-dependent manner	lower than that of R2P	–
COc1ccc2c(c1)CN(C(=O)CCN1CCC(Cc3ccccc3)CC1)CCS2 [JTV-519]	–	–	Correction of abnormal Ca2+ leakage via RyR2 (RyR2; Non-Patent Document 9): corrects abnormal Ca^2+ leakage via RyR2; Inhibition of Ca2+ leakage from the sarcoplasmic reticulum of failing myocardium (RyR2; known property of the control): inhibit Ca^2+ leakage from the sarcoplasmic reticulum of failing myocardium in a concentration-dependent manner; Effect on cardiac function (normal canine model): exhibit no effect on cardiac function; Effect on ischemic reperfusion injury [2]: effective for ischemic reperfusion injury; Effect on cardiac function [3]: exhibit the effect of improving cardiac function
MSV-RP2: M+2112-2149; addition of methionine, serine and valine to the N-terminal of R2P (MSVEDTINLLASLGQIRSLLSVRMGKEEEKLMIRGLGDI)	exhibit Ca^2+ leakage inhibitory effect in a concentration-dependent manner	lower than that of R2P	–
R2P: 36 amino acids corresponding to positions 2114 to 2149 of human ryanodine receptor type 2 (hRyR2) (EDTINLLASLGQIRSLLSVRMGKEEEKLMIRGLGDI)	inhibits Ca^2+ leakage in a concentration-dependent manner	–	Ca2+ leakage inhibitory effect compared with control JTV519 (ryanodine receptor; 1.0 μM polypeptide vs 0.3 μM JTV519, FK506-induced leakage): comparable to that of 0.3 μM JTV519
RP1-30: hRyR2 amino acid Nos. 2114-2143; deletion of six amino acids at the C-terminal of R2P (EDTINLLASLGQIRSLLSVRMGKEEEKLMI)	exhibit Ca^2+ leakage inhibitory effect in a concentration-dependent manner	lower than that of R2P	–
